Data from ChEMBL document CHEMBL1154800, “TDAE-assisted synthesis of new imidazo[2,1-b]thiazole derivatives as anti-infectious agents” (2010).
≈ marks a conversion by molar mass, not a printed value. Calls of active or inactive are those of the source. The calls are words filed in the database; no cut-off is given here.

Tests used:
[1] = tested on: Candida tropicalis; experiment: Antimicrobial activity against Candida tropicalis IP 2031 after 48 hrs by microplate assay; type: functional; conditions: IP 2031, 48 h
[2] = tested on: Escherichia coli; experiment: Antimicrobial activity against Escherichia coli ATCC 10536 by disk diffusion method; type: functional
[3] = tested on: Pseudomonas aeruginosa; experiment: Antimicrobial activity against Pseudomonas aeruginosa ATCC 15442 by disk diffusion method; type: functional
[4] = tested on: Staphylococcus aureus; experiment: Antimicrobial activity against Staphylococcus aureus ATCC 6538 by disk diffusion method; type: functional
[5] = tested on: Enterococcus hirae; experiment: Antimicrobial activity against Enterococcus hirae ATCC 10541 by disk diffusion method; type: functional
[6] = tested on: Candida albicans; experiment: Antimicrobial activity against Candida albicans ATCC 2091 by disk diffusion method; type: functional
[7] = tested on: Candida tropicalis; experiment: Antimicrobial activity against Candida tropicalis IP 2031 by disk diffusion method; type: functional
[8] = tested on: Nakaseomyces glabratus; experiment: Antimicrobial activity against Candida glabrata ATCC 90030 by disk diffusion method; type: functional
[9] = tested on: Pichia kudriavzevii; experiment: Antimicrobial activity against Candida krusei ATCC 6258 by disk diffusion method; type: functional
[10] = tested on: Pichia kudriavzevii; experiment: Antimicrobial activity against Candida krusei ATCC 6258 assessed as minimum microbial concentration after 48 hrs by microplate assay; type: functional
[11] = tested on: Nakaseomyces glabratus; experiment: Antimicrobial activity against Candida glabrata ATCC 90030 assessed as minimum microbial concentration after 48 hrs by microplate assay; type: functional
[12] = tested on: Candida tropicalis; experiment: Antimicrobial activity against Candida tropicalis IP 2031 assessed as minimum microbial concentration after 24 hrs by microplate assay; type: functional
[13] = tested on: Candida albicans; experiment: Antimicrobial activity against Candida albicans ATCC 2091 assessed as minimum microbial concentration after 24 hrs by microplate assay; type: functional
[14] = tested on: Staphylococcus aureus; experiment: Antimicrobial activity against Staphylococcus aureus ATCC 6538 assessed as minimum microbial concentration after 24 hrs by microplate assay; type: functional
[15] = tested on: Staphylococcus aureus; experiment: Antimicrobial activity against Staphylococcus aureus ATCC 6538 after 24 hrs by microplate assay; type: functional
[16] = tested on: Candida albicans; experiment: Antimicrobial activity against Candida albicans ATCC 2091 after 48 hrs by microplate assay; type: functional; conditions: ATCC 2091, 48 h
[17] = tested on: Nakaseomyces glabratus; experiment: Antimicrobial activity against Candida glabrata ATCC 90030 after 48 hrs by microplate assay; type: functional; conditions: ATCC 90030, 48 h
[18] = tested on: Pichia kudriavzevii; experiment: Antimicrobial activity against Candida krusei ATCC 6258 after 48 hrs by microplate assay; type: functional; conditions: ATCC 6258, 48 h
[19] = tested on: Pseudomonas aeruginosa; experiment: Antimicrobial activity against Pseudomonas aeruginosa ATCC 15442 after 24 hrs by microplate assay; type: functional, organism-based
[20] = tested on: Enterococcus hirae; experiment: Antimicrobial activity against Enterococcus hirae ATCC 10541 after 24 hrs by microplate assay; type: functional, organism-based
[21] = tested on: Escherichia coli; experiment: Antimicrobial activity against Escherichia coli ATCC 10536 after 24 hrs by microplate assay; type: functional
[22] = tested on: Escherichia coli; experiment: Antimicrobial activity against Escherichia coli ATCC 10536 after 24 hrs assessed as minimum microbial concentration by microplate assay; type: functional

Compound	MIC [1]	diameter of the inhibition zone (DIZ) [2]	diameter of the inhibition zone (DIZ) [3]	diameter of the inhibition zone (DIZ) [4]	diameter of the inhibition zone (DIZ) [5]	diameter of the inhibition zone (DIZ) [6]	diameter of the inhibition zone (DIZ) [7]	diameter of the inhibition zone (DIZ) [8]	diameter of the inhibition zone (DIZ) [9]	Activity [14]	MIC ([15]; ATCC 6538, 24 h)	MIC [16]	MIC [17]	MIC [18]	further results
COC(=O)C(O)(Cc1nc2sccn2c1[N+](=O)[O-])C(F)(F)F (stereo not drawn)	3.9 µg/mL (≈ 11.5 µM)	inactive	inactive	inactive	inactive	inactive	33 mm	inactive	inactive	–	–	–	–	–	–
O=[N+]([O-])c1c(CBr)nc2sccn12	15.6 µg/mL (≈ 59.5 µM)	9 mm	11 mm	18 mm	11 mm	17 mm	29 mm	20 mm	23 mm	250 µg/mL	125 µg/mL (≈ 477 µM)	125 µg/mL (≈ 477 µM)	125 µg/mL (≈ 477 µM)	62.5 µg/mL (≈ 238 µM)	Activity [10]: 62.5 µg/mL; Activity [11]: 250 µg/mL; Activity [12]: 15.6 µg/mL; Activity [13]: 125 µg/mL
GENTAMICIN	–	–	–	–	–	–	–	–	–	–	–	–	–	–	MIC [19]: 8.12 µg/mL; MIC [20]: 25 µg/mL; inhibition zone (IZ) [2]: 19 mm; inhibition zone (IZ) [3]: 19 mm; inhibition zone (IZ) [4]: 20 mm; inhibition zone (IZ) [5]: 18 mm
COLISTIN	–	–	–	–	–	–	–	–	–	–	–	–	–	–	MIC [21]: 8.12 µg/mL; MIC [15]: 0.4 µg/mL
O=[N+]([O-])c1c(CCl)nc2sccn12	15.6 µg/mL (≈ 71.7 µM)	14 mm	11 mm	18 mm	11 mm	16 mm	25 mm	18 mm	20 mm	250 µg/mL	125 µg/mL (≈ 574 µM)	62.5 µg/mL (≈ 287 µM)	62.5 µg/mL (≈ 287 µM)	62.5 µg/mL (≈ 287 µM)	Activity [10]: 62.5 µg/mL; Activity [11]: 62.5 µg/mL; Activity [12]: 15.6 µg/mL; Activity [13]: 62.5 µg/mL; Activity [22]: 250 µg/mL; MIC ([21]; ATCC 10536, 24 h): 125 µg/mL (≈ 574 µM)
CN1C(=O)C(O)(Cc2nc3sccn3c2[N+](=O)[O-])c2ccccc21 (stereo not drawn)	125 µg/mL (≈ 363 µM)	inactive	inactive	inactive	inactive	inactive	12 mm	inactive	inactive	–	–	–	–	–	–
C[C@@H]1[C@H](O)[C@@H](C)/C=C/C=C/C=C/C=C/C=C/C=C/C=C/[C@H](O[C@@H]2O[C@H](C)[C@@H](O)[C@H](N)[C@@H]2O)C[C@@H]2O[C@](O)(C[C@@H](O)C[C@@H](O)[C@H](O)CC[C@@H](O)C[C@@H](O)CC(=O)O[C@H]1C)C[C@H](O)[C@H]2C(=O)O [AMPHOTERICIN B]	12.5 µg/mL (≈ 13.5 µM)	–	–	–	–	22 mm	8 mm	22 mm	18 mm	–	–	0.16 µg/mL (≈ 0.173 µM)	0.31 µg/mL (≈ 0.335 µM)	0.62 µg/mL (≈ 0.671 µM)	–
Cc1nc2sccn2c1[N+](=O)[O-]	31.2 µg/mL (≈ 170 µM)	inactive	inactive	inactive	inactive	inactive	8 mm	inactive	inactive	–	–	> 500 µg/mL	> 500 µg/mL	> 500 µg/mL	–
CC(=O)N1C(=O)C(O)(Cc2nc3sccn3c2[N+](=O)[O-])c2ccccc21 (stereo not drawn)	14 µg/mL (≈ 37.6 µM)	inactive	inactive	16 mm	inactive	inactive	14 mm	inactive	inactive	62.5 µg/mL	31.2 µg/mL (≈ 83.8 µM)	–	–	–	–
O=C1Nc2ccccc2C1(O)Cc1nc2sccn2c1[N+](=O)[O-] (stereo not drawn)	62.5 µg/mL (≈ 189 µM)	inactive	9 mm	10 mm	inactive	inactive	8 mm	inactive	inactive	500 µg/mL	500 µg/mL (≈ 1510 µM)	500 µg/mL (≈ 1510 µM)	> 500 µg/mL	> 500 µg/mL	–
CCOC(=O)/C=C/c1nc2sccn2c1[N+](=O)[O-]	15.6 µg/mL (≈ 58.4 µM)	inactive	inactive	inactive	inactive	inactive	21 mm	inactive	inactive	–	–	–	–	–	–
